The results in this text go back to patent publication US8318928B2, “Fused imidazole carboxamides as TRPV3 modulators” (Glenmark Pharmaceuticals, S.A., priority 2008, dated 2012).

The assay addresses T1, Human TRPV3 expressing CHO cells (Homo sapiens, UniProt Q8NET8).
T1 construct: expressed in transfected cells; host or cells: CHO cells, kept under G-418 selection
T1 sequence (Q8NET8 1-790): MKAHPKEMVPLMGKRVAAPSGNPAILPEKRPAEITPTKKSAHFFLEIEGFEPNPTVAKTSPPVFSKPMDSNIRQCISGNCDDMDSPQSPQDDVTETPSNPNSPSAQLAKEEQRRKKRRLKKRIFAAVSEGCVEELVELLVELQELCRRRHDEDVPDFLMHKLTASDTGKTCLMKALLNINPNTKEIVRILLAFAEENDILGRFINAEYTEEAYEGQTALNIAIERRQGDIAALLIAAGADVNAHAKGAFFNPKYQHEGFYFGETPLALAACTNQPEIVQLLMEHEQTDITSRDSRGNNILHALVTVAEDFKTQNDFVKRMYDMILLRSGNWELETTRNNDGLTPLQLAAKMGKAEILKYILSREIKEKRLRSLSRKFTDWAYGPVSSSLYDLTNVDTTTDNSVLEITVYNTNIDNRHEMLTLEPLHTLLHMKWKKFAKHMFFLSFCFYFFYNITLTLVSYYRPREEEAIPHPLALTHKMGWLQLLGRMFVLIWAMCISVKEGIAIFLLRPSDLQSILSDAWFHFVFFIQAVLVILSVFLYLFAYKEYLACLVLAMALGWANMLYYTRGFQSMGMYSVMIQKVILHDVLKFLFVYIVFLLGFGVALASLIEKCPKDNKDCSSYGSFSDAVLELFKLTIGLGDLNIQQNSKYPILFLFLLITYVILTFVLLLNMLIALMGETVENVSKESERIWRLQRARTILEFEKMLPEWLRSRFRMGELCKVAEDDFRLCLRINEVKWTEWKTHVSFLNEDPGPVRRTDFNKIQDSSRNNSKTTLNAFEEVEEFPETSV
In words: 45Calcium uptake assay: inhibition of 2-APB induced cellular uptake of radioactive calcium. It is filed as cell-based. To be noted: 2-APB 500 μM; for inhibition at 1 µM / Percentage inhibition at 1.0 μM: compound at 1.0 μM; for inhibition at 1 µM: read-out: Percentage inhibition at 1.0 μM; for inhibition at 10 µM / Percentage inhibition at 10.0 μM: compound at 10.0 μM; for inhibition at 10 µM: read-out: Percentage inhibition at 10.0 μM; for IC50: class symbols. The source says: Certain illustrative compounds within the scope of the present invention are screened for TRPV3 activity according to a modified procedure described in (a) Tóth, A. et al. Life Sciences 2003, 73, 487-498. (b) McNamara C, R. et al. Proc. Natl. Acad. Sci. U.S.A., 2007, 104, 13525-13530. The screening of the compounds may be carried out by other methods and procedures known to persons skilled in the art.
Screening for TRPV3 Antagonist Using the ^45Calcium Uptake Assay
The inhibition of TRPV3 receptor activation was followed as inhibition of 2-aminoethxydiphenylborate (2-APB) induced cellular uptake of radioactive calcium. Test compounds were dissolved in dimethyl sulfoxide (DMSO) to prepare 20 mM stock solution and then diluted using plain medium with DMEM/F-12 containing 1.8 mM CaCl2 to get desired concentration. Final concentration of DMSO in the reaction was 0.5% (v/v). Human TRPV3 expressing CHO cells were grown in DMEM/F-12 medium with 10% FBS, 1% penicillin-streptomycin solution, 400 μg/mL of G-418. Cells were seeded 24 h prior to the assay in 96 well plates so as to get ˜50,000 cells per well on the day of experiment. Cells were treated with test compounds for 10 minutes followed by addition of 2-APB at a final concentration of 500 μM and 5 μCi/mL ^45Ca^+2 for 4 minutes. Cells were washed and lysed using buffer containing 1% Triton X-100, 0.1% deoxycholate and 0.1% SDS. Radioactivity in the lysate was measured in Packardt Top count after addition of liquid scintillant. Concentration response curves were plotted as a % of maximal response obtained in the absence of test antagonist. IC50 value was calculated from concentration response curve by nonlinear regression analysis using GraphPad PRISM software.
Percentage inhibition at concentrations of 1.0 μM and 10.0 μM are given in the table along with IC50 (nM) details for selected examples.

Regarding `CC(C)(C)COc1c(/C=C/c2nc3sccn3c2C(=O)Nc2nc3c(s2)CCC3)cccc1OC(F)F` [Example 28, 6-{(E)-2-[2-(2,2-Dimethylpropoxy)-3-(difluoromethoxy)phenyl]vinyl}-N-(5,6-dihydro-4H-cyclopenta[d][1,3]thiazol-2-yl)imidazo[2,1-b][1,3]thiazole-5-carboxamide], the inhibition at 1 µM amounted to 9.45% and the inhibition at 10 µM worked out at 15.6%.

Take `CC(C)(C)COc1c(/C=C/c2nc3sccn3c2C(=O)Nc2nc3ccc(F)cc3s2)cccc1OC(F)F` [Example 29, 6-{(E)-2-[3-(Difluoromethoxy)-2-(2,2-dimethylpropoxy)phenyl]vinyl}-N-(6-fluoro-1,3-benzothiazol-2-yl)imidazo[2,1-b][1,3]thiazole-5-carboxamide]: the inhibition at 1 µM was 24% and the inhibition at 10 µM was determined as 15.3%.

`CC(C)(C)COc1c(/C=C/c2nc3sccn3c2C(=O)NCCC#N)cccc1OC(F)F` [Example 30, N-(2-Cyanoethyl)-6-{(E)-2-[3-(difluoromethoxy)-2-(2,2-dimethylpropoxy)phenyl]vinyl}imidazo[2,1-b][1,3]thiazole-5-carboxamide]: the inhibition at 1 µM was found to be 21.1% and the inhibition at 10 µM was 94%.

For the compound `CC(C)(C)COc1c(/C=C/c2nc3sccn3c2C(=O)NCC(F)(F)F)cccc1OC(F)F` [Example 31, 6-{(E)-2-[3-(Difluoromethoxy)-2-(2,2-dimethylpropoxy)phenyl]vinyl}-N-(2,2,2-trifluoroethyl)imidazo[2,1-b][1,3]thiazole-5-carboxamide], the inhibition at 1 µM turned out to be 60.9% and the inhibition at 10 µM amounted to 97.7%.

As for `CC(C)CCOc1c(/C=C/c2nc3sccn3c2C(=O)Nc2nc(C(F)(F)F)cs2)cccc1OC(F)F` [Example 32, 6-{(E)-2-[3-(Difluoromethoxy)-2-[3-methylbutoxy)phenyl]vinyl}-N-[4-(trifluoromethyl)-1,3-thiazol-2-yl]imidazo[2,1-b][1,3]thiazole-5-carboxamide], the inhibition at 1 µM was found to be 63.7% and the inhibition at 10 µM came out at 96.6%.

For the compound `CCCCCOc1c(/C=C/c2nc3sccn3c2C(=O)Nc2nc(C(F)(F)F)cs2)cccc1OC(F)F` [Example 33], the inhibition at 1 µM amounted to 51.8% and the inhibition at 10 µM came out at 93.1%.

Regarding `CCCCCOc1c(/C=C/c2nc3sccn3c2C(=O)Nc2nc(C3CC3)cs2)cccc1OC(F)F` [Example 34], the IC50 was 100 to 250 nM, the inhibition at 1 µM stood at 78.1% and the inhibition at 10 µM turned out to be 95%.

In the case of `O=C(Nc1nc(C2CC2)cs1)c1c(/C=C/c2cccc(OC(F)F)c2OCC2CCC2)nc2sccn12` [Example 35, 6-{(E)-2-[2-(Cyclobutylmethoxy)-3-(difluoromethoxy)phenyl]vinyl}-N-(4-cyclopropyl-1,3-thiazol-2-yl)imidazo[2,1-b][1,3]thiazole-5-carboxamide], the IC50 was less than 100 nM, the inhibition at 1 µM is 84.3% and the inhibition at 10 µM came out at 96.5%.

With `O=C(Nc1nc(C(F)(F)F)cs1)c1c(/C=C/c2cccc(OC(F)F)c2OCC2CCC2)nc2sccn12` [Example 36, 6-{(E)-2-[2-(Cyclobutylmethoxy)-3-(difluoromethoxy)phenyl]vinyl}-N-[4-(trifluoro-methyl)-1,3-thiazol-2-yl]imidazo[2,1-b][1,3]thiazole-5-carboxamide], the IC50 lay in the range of 100 to 250 nM, the inhibition at 1 µM came to 93.7% and the inhibition at 10 µM came out at 97.7%.

As for `COc1cccc(/C=C/c2nc3ccccn3c2C(=O)Nc2nc(C(F)(F)F)cs2)c1OCC(C)(C)C` [Example 37], the IC50 is less than 100 nM, the inhibition at 1 µM came out at 94.9% and the inhibition at 10 µM amounted to 97.9%.

With `CC(C)(C)COc1c(/C=C/c2nc3ccccn3c2C(=O)Nc2nc(C3CC3)cs2)cccc1OC(F)F` [Example 39, 2-{(E)-2-[2-(2,2-Dimethylpropoxy)-3-(difluoromethoxy)phenyl]vinyl}-N-(4-cyclo-propyl-1,3-thiazol-2-yl)imidazo[1,2-a]pyridine-3-carboxamide], the inhibition at 1 µM was 76.1% and the inhibition at 10 µM worked out at 58.7%.

For the compound `CC(C)(C)COc1c(/C=C/c2nc3ccccn3c2C(=O)Nc2nc(C3CCC3)cs2)cccc1OC(F)F` [Example 40, N-(4-Cyclobutyl-1,3-thiazol-2-yl)-2-{(E)-2-[3-(difluoromethoxy)-2-(2,2-dimethyl-propoxy)phenyl]vinyl}imidazo[1,2-c]pyridine-3-carboxamide], the “Percentage inhibition at 1.0 μM” value is recorded as 56.41% and the “Percentage inhibition at 10.0 μM” value came to 72.35%.

As for `CC(C)CCOc1c(/C=C/c2nc3ccccn3c2C(=O)Nc2nc(C(F)(F)F)cs2)cccc1OC(F)F` [Example 41, 2-{(E)-2-[3-(Difluoromethoxy)-2-(3-methylbutoxy)phenyl]vinyl}-N-[4-(trifluoromethyl)-1,3-thiazol-2-yl]imidazo[1,2-c]pyridine-3-carboxamide], the “Percentage inhibition at 1.0 μM” value is 52.99% and the “Percentage inhibition at 10.0 μM” value is listed as 84.65%.
